Experiments:
[1] = in vivo; parameters: species or system male rats of a Sprague-Dawley strain; settings: rat, po
Method: To examine the ulcerogenic activity, the substances to be tested were orally administered to male rats of a Sprague-Dawley strain, that had been kept unfed for 18 hours, and 24 hours after administration, the gastrointestinal tract of the animals was inspected for ulcers.

[2] = system: adjuvant arthritis; assay: adjuvant arthritis in rats (anti-inflammatory effect); type: in vivo; settings: Rattus norvegicus, po, 408 h, per os, 50% reduction of secondary lesions on the 17th day vs control
Method: (§1) The ED50 levels were determined graphically on probability paper. In the writhing test, the ED50 is defined to be the dosis of active ingredient that reduces the number of writhings by 50% as compared with a control group. In the adjuvant arthritis test, the effect was judged by observing the inhibition in the secondary lesions, which the animals inflicted to their ears, paws and tails, on the 17th day after the administration of the active substance compositions had started, in comparison with a control group. ED50 is considered the dosis that reduces these lesions by 50% as compared to those of the control group.

[3] = in vivo; settings: mouse, po, per os, N.M.R.I. mice, observation time 7 days
[4] = in vivo; settings: rat, po, per os, observation time 7 days
Description: ^1) Limits of confidence for p = 0.05 in brackets
^2) Sprague-Dawley rats used as test animals

[5] = system: writhing; assay: writhing test on mice (analgesic effect); type: in vivo; settings: Mus musculus, po, per os, dosis that reduces the number of writhings by 50% vs control
Method: as §1

Structure (SMILES)	NOAEL at 24 h [1] [mg/kg]	ED50 [2] [mg/kg]	LD50 at 168 h [3] [mg/kg]	LD50 at 168 h ([4]; female Wistar-Lewis rats) [mg/kg]	ED50 [5] [mg/kg]	LD50 at 168 h ([4]; Sprague-Dawley rats used as test animals (footnote 2)) [mg/kg]
CC(O)=C(C#N)C(=O)Nc1cccc(Cl)c1 [No. 2]	200	22	585	445	~25	
CC(O)=C(C#N)C(=O)Nc1cccc(C(F)(F)F)c1 [compound 11]	100	28	660		25	670
CCCCC1C(=O)N(c2ccccc2)N(c2ccccc2)C1=O [Phenylbutazone, phenylbutazone, reference compound]	63	37			60 to 100	
